Measurements published in patent US12486242B2, “Long-acting low-addiction HNK derivative and preparation method therefor” (SHENZHEN RUIJIAN BIOTECHNOLOGY CO., LTD, priority 2020, dated 2025).
Entries after “also recorded” stand apart in the source; their conditions may differ. Where a name gives a salt, the structure may show the parent alone.

Tests used:
[1] = test system: mice; experiment: Forced swimming test (FST), immobility time; assay type: in vivo; conditions: for antidepressant effect (immobility time): intragastric administration, mice; for antidepressant effect: dose not given; for course of efficacy within 7 days / effect on the 7th day: intragastric; for course of efficacy within 7 days: 1 hour to 7 days
Method: One hour before the forced swimming test (FST), the mice were transferred to the laboratory. The test was conducted under normal light condition and monitored by a digital camera. During the test, the mice were individually placed in transparent glass cylinders (28.5 cm in height, 14 cm in diameter) filled with 20 cm height of water (23±1° C.). On the first day, the mice were trained for 6 minutes and then removed from the cylinder. On the second day, the mice were administered saline, HNK, Compound 16, Compound C, and Compound D, and after different time periods, their immobility time was tested. During the last 4 minutes of the entire 6-minute swimming test, the static time was recorded through EthoVision XT (Noldus, Netherlands) of Noldus system. The static time was defined as passive floating, that is there was no other movement except the movements necessary to keep the animal's head above the water. After every two to three tests, the water in the cylinders was replaced. After the swimming test, the mice were removed from the water and dried under an infrared lamp.
The mice were given 1 mg (A), 10 mg (B) and 30 mg (C) of HNK and Compund I6 by intragastric administration, respectively, and their immobility time was measured after 1 hour and 7 days. The percentage of immobility time is expressed as mean±SEM. *p<0.05, **p<0.01, compared to base test. Mice of each group was N=8. Saline: saline group; I6: Compound I6 treatment group; HNK: 2R,6R-hydroxynorketamine treatment group.

[2] = test system: mice; experiment: Behavioral sensitization experiment (spontaneous activity measurement); assay type: in vivo, C57BL/6J mice; conditions: doses 5 mg, 10 mg, 30 mg, intragastric, d1, d7, d15
Method: (§1) Animals: Male C57BL/6J mice of 8-12 weeks old were randomly divided into groups, 10 mice in each group, with body weight of 18-22 g, fed at room temperature (22±1° C.), under humidity of (50±10)%, illumination time from 8:00 to20:00. The mice had free access to food and water, and adapted to the experimental environment for at least 2-3 days before the experiments. All experiments were conducted from 8:00 to 16:00.
1.1 Small animal spontaneous activity measurement: An animal spontaneous activity infrared analysis system consists of a spontaneous activity box, an infrared probe device and a data acquisition system. The size of the spontaneous activity box is 40 cm×40 cm×65 cm, with sound isolation and light isolation, and mounted with a ventilation device. The activity statuses of the animals were recorded by the infrared probe, and the numbers of spontaneous activities of the animals were calculated. In order to test the effect of drugs on spontaneous activities of mice, the mice were randomly divided into 4 groups with 10 mice in each group. The Groups included: vehicle, I6, C, D (5.0, 10.0, 30.0 mg/kg), mor (10 mg/kg). The mice were administrated intragastrically once a day in the morning for 7 consecutive days; after that, the drugs withdrew for 7 days (without any treatment). On the 15th day, mice in each group were given Veh and the drugs (5.0, 10.0, 30.0 mg/kg) by intragastric administration to stimulate. Spontaneous activity of the mice within 1 hour was measured immediately after administration at d1, d7 and d15.
Statistical analysis: Experimental data were expressed as X±SEM. Graphpad software was used for statistical analysis, and t-test was used for comparison between two groups. One-way ANOVA analysis was used for comparison among multiple groups, and then LSD method was used for pairwise comparison.

[3] = test system: mice; experiment: Position preference (CPP) experiment, three-room system; assay type: in vivo, C57BL/6J mice; conditions: doses 5 mg, 10 mg, 30 mg, intragastric, 6 days training, residence time in white box within 15 min
Method: as §1
1.2 CPP experiment: A three-room CPP system includes black and white boxes (25 cm×25 cm×30 cm) at left and right sides, separated by a middle box (10 cm×25 cm×30 cm). During the experiment, mice were put into the middle box and could freely move to the black and white boxes. A door with the size of 5 cm×5 cm was arranged between the middle box and each of the black and white boxes. The experiment adopted a biased procedure, which had three stages of pre-test, training, and test stages. During the whole experiment, the environmental conditions such as light, color and smell in the boxes were guaranteed to be consistent.
Pre-test stage: On days 1-3, the spacer plates between the boxes were removed, and all mice were put into the middle box after being injected with saline subcutaneously, allowing them to move freely in the boxes for 15 min, once a day for 3 consecutive days. The residence time of the mice in the black and white boxes was respectively recorded to determine the natural preference of the mice. The mice were trained with the non-natural preference box as the companion medicine box. […]
Test stage: on day 10, the spacer plates were removed, and the mice were put into the middle box allowing to move freely. At the same time, the residence time of the mice in the white box within 15 min were recorded.
Position preference was tested by a three-room system. […] After continuous training for 6 days, the test was carried out, and the residence times of the mice within 15 min in the white box were recorded. […]

[4] = Applicant's experimental studies on HNK (efficacy duration, addiction); conditions: in vivo
[5] = test system: NMDA receptor; conditions: cited from earlier work
[6] = test system: patients; conditions: within 72 hours after a single intravenous injection, 0.5 mg/kg; cited from earlier work

Row | Compound | antidepressant effect (immobility time) ([1]; 30 mg) | antidepressant effect [1] | behavioral sensitization effect on mice [2] | position preference effect on mice [3] | antidepressant effect (immobility time) ([1]; 1 mg) | antidepressant effect (immobility time) ([1]; 10 mg) | course of efficacy within 7 days ([1]; 10 mg) | course of efficacy within 7 days ([1]; 30 mg) | other results
1 | CN[C@@]1(c2ccccc2Cl)CCC[C@@H](OC(=O)c2ccccc2)C1=O [Compound C] | no antidepressant effect | no antidepressant effect | behavioral sensitizing effect; also recorded: behavioral sensitization effect | induced position preference | – | – | – | – | –
2 | N[C@]1(c2ccccc2Cl)CCC[C@H](OC(=O)c2ccc(CN3CCOCC3)cc2)C1=O [Compound D] | no antidepressant effect | no antidepressant effect | behavioral sensitizing effect; also recorded: behavioral sensitization effect | induced position preference | – | – | – | – | –
3 | N[C@@]1(c2ccccc2Cl)CCC[C@@H](OC(=O)c2ccoc2)C1=O [Compound I6, (2R,6R)-6-(3-furan)formyloxynorketamine hydrochloride salt] | antidepressant effect | – | – | – | no antidepressant effect | antidepressant effect | substantially did not decrease | substantially did not decrease | difference between the 10 mg and 30 mg treatment groups ([1]; 10 mg vs 30 mg): no significant difference; immobility time during forced swimming ([1]; compared with the HNK-treated group): less immobility time; antidepressant effect at the 7th day after administration ([1]; compared with the HNK-treated group, dose not stated): significant antidepressant effect; behavioral sensitization effect on mice ([2]; hydrochloride salt): no behavioral sensitization effect; also recorded: non-sensitization effect; position preference effect on mice ([3]; hydrochloride salt): no position preference effect; also recorded: non-position preference effect
4 | N[C@@]1(c2ccccc2Cl)CCC[C@@H](O)C1=O [HNK, (2R,6R)-6-hydroxydemethylketamine, reference compound] | antidepressant effect | – | – | – | no antidepressant effect | antidepressant effect | decreased rapidly | decayed rapidly | effect on the 7th day ([1]; 10 mg): substantially had no effect; effect on the 7th day ([1]; 30 mg): substantially had no effect; addiction [4]: a certain degree of addiction; duration of efficacy after administration [4]: basically lost activity within one week; activity to NMDA receptor [5]: no activity
5 | CNC1(c2ccccc2Cl)CCCCC1=O (centres unmarked) [ketamine] | – | – | – | – | – | – | – | – | patients with Hamilton Depression Scale score decreased by 50% or more [6]: more than 50%
